Measured values reported in publication PMC6406525, “A Biophysical Approach to the Identification of Novel ApoE Chemical Probes” (Biomolecules, 2019).

Key:
Assay type in all cases: binding
[1] = target: T1, ApoE3 (Homo sapiens, UniProt P02649); experiment: isothermal titration calorimetry (protein injected into compound)
T1 construct: gene APOE; His6-thioredoxin tag removed by HRV 3C protease; E. coli Rosetta2(DE3)
From the text: isothermal titration calorimetry (protein injected into compound) on ApoE3

[2] = target: T2, ApoE4 (Homo sapiens, UniProt P02649, C130R); experiment: as above
T2 construct: gene APOE; full-length mature ApoE4, codon-optimized gene in pET17b; His6-thioredoxin tag removed by HRV 3C protease; E. coli Rosetta2(DE3)

[3] = target: T3, ApoE2 (Homo sapiens, UniProt P02649, R176C); experiment: as above
T3 construct: gene APOE; His6-thioredoxin tag removed by HRV 3C protease; E. coli Rosetta2(DE3)
From the text: isothermal titration calorimetry (protein injected into compound) on ApoE2

[4] = target: T2, ApoE4; experiment: microscale thermophoresis (Red-NHS labelled ApoE4, initial fluorescence)
From the text: microscale thermophoresis (Red-NHS labelled ApoE4, initial fluorescence) on ApoE4

T1 sequence (P02649 19-317): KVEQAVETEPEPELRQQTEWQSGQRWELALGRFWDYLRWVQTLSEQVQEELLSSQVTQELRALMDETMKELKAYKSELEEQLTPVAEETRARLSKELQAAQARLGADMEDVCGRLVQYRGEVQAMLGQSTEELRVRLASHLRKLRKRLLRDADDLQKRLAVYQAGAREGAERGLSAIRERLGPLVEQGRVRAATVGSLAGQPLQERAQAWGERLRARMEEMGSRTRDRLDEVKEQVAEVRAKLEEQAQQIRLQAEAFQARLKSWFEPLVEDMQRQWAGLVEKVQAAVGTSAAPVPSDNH
T2 sequence (P02649 19-317 C130R): as the sequence (P02649 19-317) above, with C112R counted along it
T3 sequence (P02649 19-317 R176C): as the sequence (P02649 19-317) above, with R158C counted along it

Structure (SMILES)	Kd [1] [µM]	Kd ([2]; read-out: ApoE4) [µM]	Kd [3] [µM]	Kd [4] [µM]	Kd ([2]; read-out: binding affinity) [µM]
CCN(CC)CCOc1ccc(C(=C(Cl)c2ccccc2)c2ccccc2)cc1 [Clomifene]	24 ± 9	15 ± 10	67 ± 36		
N[C@@H](Cc1cc(I)c(Oc2cc(I)c(O)c(I)c2)c(I)c1)C(=O)O [L-Thyroxine]	20 ± 3	18 ± 12	33 ± 10		
O=C(O)c1ccc2nc(-c3cc(Cl)cc(Cl)c3)oc2c1 [Tafamidis]	8 ± 1	8 ± 2	6 ± 2		
Cc1ccc(C(=O)Nc2ccc(S(=O)(=O)O)c3cc(S(=O)(=O)O)cc(S(=O)(=O)O)c23)cc1NC(=O)c1cccc(NC(=O)Nc2cccc(C(=O)Nc3cc(C(=O)Nc4ccc(S(=O)(=O)O)c5cc(S(=O)(=O)O)cc(S(=O)(=O)O)c45)ccc3C)c2)c1 [Suramin]					3 ± 0.4
CN(C)CCOc1ccc(/C(=C(/CCCl)c2ccccc2)c2ccccc2)cc1 [Toremifene]				44 ± 6	

Next, values leading:

Kd [1] [µM]	Kd ([2]; read-out: ApoE4) [µM]	Kd [3] [µM]	Kd [4] [µM]	Kd ([2]; read-out: binding affinity) [µM]	Structure (SMILES)
			67 ± 19		CC/C(=C(\c1ccccc1)c1ccc(OCCN(C)C)cc1)c1ccccc1 [Tamoxifen]
47 ± 9	45 ± 13	47 ± 32			Cc1ccc(Cl)c(Nc2ccccc2C(=O)O)c1Cl [Meclofenamic acid]
119 ± 50	38 ± 4	55 ± 14			O=C(O)c1cc2ccccc2c(Cc2c(O)c(C(=O)O)cc3ccccc23)c1O [Pamoic acid]
